Data on 25 compounds can be found in US20260315452A1, “PROTEASE INHIBITORS AND USES THEREOF” (priority 2023, published 2026).

Counter-ions that a name gives are not always drawn.

The term IC50 denotes the concentration that gives 50% inhibition. Usually EC50 stands for the concentration giving half of the maximal effect.

One experiment has as its target SARS-CoV-2 3CLpro (Severe acute respiratory syndrome coronavirus 2, UniProt P0DTD1). Kind of experiment: biochemical. Particulars: inhibition of SARS-CoV-2 3CLpro; 15 nM 3CLpro, 25 μM fluorogenic substrate, 37° C.; read-out: Inhibitory Activity (IC50).
In a further experiment the test system is SARS-CoV-2. Kind of experiment: Anti-SARS-CoV-2 activity in A549 cells expressing the human ACE2 receptor (inhibition of SARS-CoV-2 replication). Conditions: for EC50: Severe acute respiratory syndrome coronavirus 2, A549-ACE2, 24 h, read-out: Antiviral Activity (EC50); for antiviral potency in A549 cells in comparison with compound Ref-2: versus Ref-2 (FIG. 7). Type of experiment: cell-based.

For the compound `CNC(=O)c1cc(Br)cc([N+](=O)[O-])c1N[C@@H]1CCCC[C@@H]1NC(=O)c1cncc2ccncc12` [Compound 55, N-((1S, 2R)-2-((4-bromo-2-(methylcarbamoyl)-6-nitrophenyl)amino)cyclohexyl)-2,6-naphthyridine-4-carboxamide], the IC50 on SARS-CoV-2 3CLpro lay in the range of 100 to 1000 nM. Besides, the concentration for a half-maximal effect (EC50) in the experiment on SARS-CoV-2 lay in the range of 100 to 1000 nM.
As for `CNC(=O)c1cc(Br)cc([N+](=O)[O-])c1N[C@@H]1CCN(C(=O)c2cncc3ccccc23)C1` [Compound 64, (R)-5-bromo-2-((1-(isoquinoline-4-carbonyl)pyrrolidin-3-yl)amino)-N-methyl-3-nitrobenzamide], the IC50 at SARS-CoV-2 3CLpro is 100 to 1000 nM. Moreover, the concentration for a half-maximal effect (EC50) with SARS-CoV-2 was in the range of 100 to 1000 nM.
Consider `C=CCNC(=O)c1cc(Br)cc([N+](=O)[O-])c1N[C@H]1CN(C(=O)c2cncc3ccccc23)CCC1(F)F` [Compound 156, (S)-N-ally1-5-bromo-2-((4,4-difluoro-1-(isoquinoline-4-carbonyl)piperidin-3-yl)amino)-3-nitrobenzamide], for which the half-inhibitory concentration (IC50) at SARS-CoV-2 3CLpro was below 100 nM. In addition, the EC50 in the experiment on SARS-CoV-2 was below 100 nM.
Consider `CC1(NC(=O)c2cc(Br)cc([N+](=O)[O-])c2N[C@H]2CN(C(=O)c3cncc4ccccc34)CCC2(F)F)CC1` [Compound 157, (S)-5-bromo-2-((4,4-difluoro-1-(isoquinoline-4-carbonyl)piperidin-3-yl)amino)-N-(1-methylcyclopropyl)-3-nitrobenzamide], for which the IC50 at SARS-CoV-2 3CLpro is below 100 nM. For the same compound, the EC50 with SARS-CoV-2 is below 100 nM.
`C[C@H](NC(=O)c1cc(Br)cc([N+](=O)[O-])c1N[C@@H]1COCC[C@@H]1NC(=O)c1cncc2ccccc12)C(F)(F)F` [Compound 135, N-((3S, 4S)-3-((4-bromo-2-nitro-6-(((S)-1,1,1-trifluoropropan-2-yl)carbamoyl)phenyl)amino)tetrahydro-2H-pyran-4-yl)isoquinoline-4-carboxamide]: the concentration for half-maximal inhibition (IC50) at SARS-CoV-2 3CLpro was below 100 nM. In addition, the EC50 in the experiment on SARS-CoV-2 was below 100 nM.
For the compound `CN(C)C(=O)c1cc(Br)cc([N+](=O)[O-])c1N[C@H]1CN(C(=O)c2cncc3ccccc23)CCC1(F)F` [Compound 151, (S)-5-bromo-2-((4,4-difluoro-1-(isoquinoline-4-carbonyl)piperidin-3-yl)amino)-N, N-dimethyl-3-nitrobenzamide], the half-maximal inhibitory concentration (IC50) on SARS-CoV-2 3CLpro is below 100 nM. Moreover, in the experiment on SARS-CoV-2, the “antiviral potency in A549 cells in comparison with compound Ref-2” value is on record as “better antiviral potency” and the concentration giving a half-maximal response (EC50) is below 100 nM.
Take `CNC(=O)c1cc(Br)cc([N+](=O)[O-])c1N[C@H]1CN(C(=O)c2cncc3ccccc23)CC12CC2` [Compound 74, (R)-5-bromo-2-((5-(isoquinoline-4-carbonyl)-5-azaspiro[2,4]heptan-7-yl)amino)-N-methyl-3-nitrobenzamide]: the half-maximal inhibitory concentration (IC50) on SARS-CoV-2 3CLpro lay in the range of 100 to 1000 nM. For the same compound, the EC50 in the experiment on SARS-CoV-2 was below 100 nM.
On to `CN1CC[C@@H](NC(=O)c2cc(Br)cc([N+](=O)[O-])c2N[C@H]2CN(C(=O)c3cncc4ccccc34)CCC2(F)F)C1` [Compound 45, 5-bromo-2-(((S)-4,4-difluoro-1-(isoquinoline-4-carbonyl)piperidin-3-yl)amino)-N-((R)-1-methylpyrrolidin-3-yl)-3-nitrobenzamide hydrochloride], for which, on SARS-CoV-2 3CLpro, the IC50 was below 100 nM. For the same compound, in the experiment on SARS-CoV-2, the half-maximal effective concentration (EC50) is below 100 nM.
On to `CC(C)(O)CNC(=O)c1cc(Cl)cc([N+](=O)[O-])c1N[C@H]1CN(C(=O)c2cncc3ccccc23)CCC1(F)F` [Compound 40, (S)-5-chloro-2-((4,4-difluoro-1-(isoquinoline-4-carbonyl)piperidin-3-yl)amino)-N-(2-hydroxy-2-methylpropyl)-3-nitrobenzamide], for which, at SARS-CoV-2 3CLpro, the IC50 is below 100 nM. Besides, in the experiment with SARS-CoV-2, the concentration giving a half-maximal response (EC50) is below 100 nM.
Consider `Cn1cc(NC(=O)c2cc(Cl)cc([N+](=O)[O-])c2N[C@H]2CN(C(=O)c3cncc4ccccc34)CCC2(F)F)cn1` [Compound 41, (S)-5-chloro-2-((4,4-difluoro-1-(isoquinoline-4-carbonyl)piperidin-3-yl)amino)-N-(1-methyl-1H-pyrazol-4-yl)-3-nitrobenzamide], for which the IC50 on SARS-CoV-2 3CLpro is below 100 nM. Besides, in the experiment on SARS-CoV-2, the “antiviral potency in A549 cells in comparison with compound Ref-2” value is given as “better antiviral potency” and the EC50 is below 100 nM.
On to `CNC(=O)c1cc(Br)cc([N+](=O)[O-])c1N[C@H]1CN(C(=O)c2cncc3ccccc23)CC[C@H]1F` [Compound 88, 5-bromo-2-(((3S, 4R)-4-fluoro-1-(isoquinoline-4-carbonyl)piperidin-3-yl)amino)-N-methyl-3-nitrobenzamide], for which the concentration for half-maximal inhibition (IC50) at SARS-CoV-2 3CLpro is below 100 nM. For the same compound, the EC50 in the experiment on SARS-CoV-2 was below 100 nM.
Regarding `O=C(c1cc(Cl)cc([N+](=O)[O-])c1N[C@H]1CN(C(=O)c2cncc3ccccc23)CCC1(F)F)N1CC(F)(F)C1` [Compound 143, (S)-(5-chloro-2-((4,4-difluoro-1-(isoquinoline-4-carbonyl)piperidin-3-yl)amino)-3-nitrophenyl)(3,3-difluoroazetidin-1-yl)methanone], the IC50 on SARS-CoV-2 3CLpro is below 100 nM. Further, in the experiment with SARS-CoV-2, the concentration for a half-maximal effect (EC50) is below 100 nM.
With `CNC(=O)c1cc(Cl)cc(C(F)(F)F)c1N[C@H]1CN(C(=O)c2cncc3ccccc23)CCC1(F)F` [Compound 84, (S)-5-chloro-2-((4,4-difluoro-1-(isoquinoline-4-carbonyl)piperidin-3-yl)amino)-N-methyl-3-(trifluoromethyl)benzamide], the IC50 at SARS-CoV-2 3CLpro is below 100 nM. Besides, the EC50 in the experiment with SARS-CoV-2 was below 100 nM.
Consider `CC(C)(C)NC(=O)c1cc(Br)cc([N+](=O)[O-])c1N[C@@H]1CCCC[C@@H]1NC(=O)c1cncc2ccccc12` [Compound 85, N-((1S, 2R)-2-((4-bromo-2-(tert-butylcarbamoyl)-6-nitrophenyl)amino)cyclohexyl)isoquinoline-4-carboxamide], for which the half-inhibitory concentration (IC50) on SARS-CoV-2 3CLpro fell in the range of 100 to 1000 nM. The half-maximal effective concentration (EC50) in the experiment on SARS-CoV-2 was in the range of 100 to 1000 nM.
On to `O=C(NC1CC(F)(F)C1)c1cc(Br)cc(C(F)(F)F)c1N[C@@H]1COCC[C@@H]1NC(=O)c1cncc2ccccc12` [Compound 79, N-((3S, 4S)-3-((4-bromo-2-((3,3-difluorocyclobutyl)carbamoyl)-6-(trifluoromethyl)phenyl)amino)tetrahydro-2H-pyran-4-yl)isoquinoline-4-carboxamide], for which, at SARS-CoV-2 3CLpro, the IC50 was below 100 nM. Besides, the EC50 in the experiment with SARS-CoV-2 lay within 100 to 1000 nM.
With `CNC(=O)c1cc(Br)cc([N+](=O)[O-])c1N[C@@H]1CN(C)CC[C@@H]1NC(=O)c1cncc2ccccc12` [Compound 89, N-((3R,4S)-3-((4-bromo-2-(methylcarbamoyl)-6-nitrophenyl)amino)-1-methylpiperidin-4-yl)isoquinoline-4-carboxamide], at SARS-CoV-2 3CLpro, the IC50 lay within 1000 to 10000 nM. Moreover, in the experiment on SARS-CoV-2, the concentration for a half-maximal effect (EC50) lay in the range of 1000 to 10000 nM.
Regarding `CC(C)C(Nc1c(C(=O)NC2CC(F)(F)C2)cc(Br)cc1[N+](=O)[O-])C1CN(C(=O)c2cncc3ccccc23)C1` (stereo not shown) [Compound 116, 5-bromo-N-(3,3-difluorocyclobutyl)-2-((1-(1-(isoquinoline-4-carbonyl)azetidin-3-yl)-2-methylpropyl)amino)-3-nitrobenzamide], the concentration for half-maximal inhibition (IC50) on SARS-CoV-2 3CLpro lay within 100 to 1000 nM. Besides, the EC50 in the experiment with SARS-CoV-2 is 100 to 1000 nM.
For `CNC(=O)c1cc(Br)cc([N+](=O)[O-])c1N[C@@H]1CCCC[C@@H]1NC(=O)c1cncc(C(F)(F)F)c1` [Compound 72, N-((1S, 2R)-2 ((4-bromo-2-(methylcarbamoyl)-6-nitrophenyl)amino)cyclohexyl)-5-(trifluoromethyl)nicotinamide], the 50% inhibitory concentration (IC50) at SARS-CoV-2 3CLpro fell in the range of 1000 to 10000 nM. The EC50 in the experiment with SARS-CoV-2 is above 10000 nM.
Turning to `O=C(c1cc(Br)cc([N+](=O)[O-])c1N[C@H]1CN(C(=O)c2cncc3ccccc23)CCC1(F)F)N1CC(F)(F)C1` [Compound 36, (S)-(5-bromo-2-((4,4-difluoro-1-(isoquinoline-4-carbonyl)piperidin-3-yl)amino)-3-nitrophenyl)(3,3-difluoroazetidin-1-yl)methanone], the IC50 at SARS-CoV-2 3CLpro was below 100 nM. The EC50 in the experiment on SARS-CoV-2 is below 100 nM.
With `CNC(=O)c1cc(Br)cc([N+](=O)[O-])c1NC(C(C)C)C1CN(C(=O)c2cncc3ccccc23)C1` (stereo not shown) [Compound 99, 5-bromo-2-((1-(1-(isoquinoline-4-carbonyl)azetidin-3-yl)-2-methylpropyl)amino)-N-methyl-3-nitrobenzamide], at SARS-CoV-2 3CLpro, the IC50 is 100 to 1000 nM. The EC50 in the experiment with SARS-CoV-2 was 100 to 1000 nM.
For `O=C(N[C@@H]1CCOC1)c1cc(Cl)cc([N+](=O)[O-])c1N[C@H]1CN(C(=O)c2cncc3ccccc23)CCC1(F)F` [Compound 142, 5-chloro-2-(((S)-4,4-difluoro-1-(isoquinoline-4-carbonyl)piperidin-3-yl)amino)-3-nitro-N-((R)-tetrahydrofuran-3-yl)benzamide], the IC50 at SARS-CoV-2 3CLpro is below 100 nM. For the same compound, the EC50 in the experiment with SARS-CoV-2 was below 100 nM.
As for `C[C@@H](NC(=O)c1cc(Br)cc([N+](=O)[O-])c1N[C@@H]1CCCN(C(=O)c2cncc3ccccc23)C1)C(F)(F)F` [Compound 81, 5-bromo-2-(((R)-1-(isoquinoline-4-carbonyl)piperidin-3-yl)amino)-3-nitro-N-((R)-1,1,1-trifluoropropan-2-yl)benzamide], the half-inhibitory concentration (IC50) at SARS-CoV-2 3CLpro was below 100 nM. The concentration giving a half-maximal response (EC50) with SARS-CoV-2 was below 100 nM.
`O=C(NCC(F)(F)F)c1cc(Br)cc([N+](=O)[O-])c1N[C@@H]1CCCC[C@@H]1NC(=O)c1cncc2ccccc12` [Compound 59, N-((1S, 2R)-2-((4-bromo-2-nitro-6-((2,2,2-trifluoroethyl)carbamoyl)phenyl)amino)cyclohexyl)isoquinoline-4-carboxamide]: on SARS-CoV-2 3CLpro, the IC50 is 100 to 1000 nM. The EC50 with SARS-CoV-2 lay in the range of 100 to 1000 nM.
With `O=C(NC1CC(F)(F)C1)c1cc(Br)cc([N+](=O)[O-])c1N[C@H]1CN(C(=O)c2cncc3ccccc23)CCC1(F)F` [Compound 33, (S)-5-bromo-2-((4,4-difluoro-1-(isoquinoline-4-carbonyl)piperidin-3-yl)amino)-N-(3,3-difluorocyclobutyl)-3-nitrobenzamide], the IC50 at SARS-CoV-2 3CLpro is below 100 nM. For the same compound, the EC50 in the experiment with SARS-CoV-2 was below 100 nM.
For `O=C(NC1CC(F)(F)C1)c1cc(Cl)cc([N+](=O)[O-])c1N[C@H]1CN(C(=O)c2cncc3ccccc23)CCC1(F)F` [Compound 158, (S)-5-chloro-2-((4,4-difluoro-1-(isoquinoline-4-carbonyl)piperidin-3-yl)amino)-N-(3,3-difluorocyclobutyl)-3-nitrobenzamide], on SARS-CoV-2 3CLpro, the half-inhibitory concentration (IC50) is below 100 nM. Besides, the concentration giving a half-maximal response (EC50) with SARS-CoV-2 was below 100 nM.
